The target in assay [1] is T1, wild-type EGFR (Homo sapiens, UniProt P00533).
T1 construct: purchased Signalchem
The assay can be described thus: Enzymology experiment in vitro (HTRF/FRET kinase activity), wild-type EGFR. Type of assay: biochemical. As to conditions: HTRF KinEASE-TK, read-out: EGFR (WT) IC50. An outline of the steps:
(§1)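 HTRF KinEASE-TK format: EGFR enzyme preincubated with compound 10 min at room temperature, then peptide substrate plus ATP added for 40 min. Detection with EDTA, XL665-streptavidin and Eu³⁺-labeled antibody for 1 h.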

For assay [2], the target named is T2, L858R/T790M/C797S triple mutant EGFR (Homo sapiens, UniProt P00533, C797S/L858R/T790M).
T2 construct: purchased Signalchem
Put plainly: Enzymology experiment in vitro (HTRF/FRET kinase activity), L858R/T790M/C797S triple mutant EGFR. The format is biochemical. Conditions: HTRF KinEASE-TK, read-out: EGFR (L858R/T790M/C797S) IC50. An outline of the steps: as §1
For orientation: In TR-FRET formats the signal depends on donor and acceptor labels being close together.

The subject of assay [3] is EGFR wild-type cell line A431. Put plainly: Cell proliferation inhibition experiment (CellTiter-Glo), A431. Type of assay: cell-based. As to conditions: Homo sapiens, A-431, 72 h, A431 cells, Cell Titer-Glo, read-out: A431 EGFR WT IC50. An outline of the steps:
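A431 cells, 800 per well, were cultured 24 h and then exposed to serially diluted compound (0.1% DMSO final) for 72 h at 37° C., 5% CO2.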
(In general: ATP-based viability assays read luminescence as a measure of living cells.)

For assay [4], the target named is Ba/F3 De119/T790M/C797S EGFR triple mutant cell line (Homo sapiens, UniProt P00533, T790M/C797S, cells depend on it, form not given). Put plainly: Cell proliferation inhibition experiment (CellTiter-Glo), Ba/F3 De119/T790M/C797S. Type of assay: cell-based. Conditions: Ba/F3 Del19/T790M/C797S EGFR triple mutant cells, 72 hours, Cell Titer-Glo; read-out: Ba/F3 (Del19/T790M/C797S) IC50.

Assay [5] has as its target Ba/F3 L858R/T790M/C797S EGFR triple mutant cell line (Homo sapiens, UniProt P00533, T790M/C797S/L858R, cells depend on it). The assay can be described thus: Cell proliferation inhibition experiment (CellTiter-Glo), Ba/F3 L858R/T790M/C797S. Conditions: 72 hours, Cell Titer-Glo, read-out: Ba/F3 (L858R/T790M/C797S) IC50. Type of assay: cell-based.

Sequence of Ba/F3 L858R/T790M/C797S EGFR triple mutant cell line (P00533 whole entry T790M/C797S/L858R): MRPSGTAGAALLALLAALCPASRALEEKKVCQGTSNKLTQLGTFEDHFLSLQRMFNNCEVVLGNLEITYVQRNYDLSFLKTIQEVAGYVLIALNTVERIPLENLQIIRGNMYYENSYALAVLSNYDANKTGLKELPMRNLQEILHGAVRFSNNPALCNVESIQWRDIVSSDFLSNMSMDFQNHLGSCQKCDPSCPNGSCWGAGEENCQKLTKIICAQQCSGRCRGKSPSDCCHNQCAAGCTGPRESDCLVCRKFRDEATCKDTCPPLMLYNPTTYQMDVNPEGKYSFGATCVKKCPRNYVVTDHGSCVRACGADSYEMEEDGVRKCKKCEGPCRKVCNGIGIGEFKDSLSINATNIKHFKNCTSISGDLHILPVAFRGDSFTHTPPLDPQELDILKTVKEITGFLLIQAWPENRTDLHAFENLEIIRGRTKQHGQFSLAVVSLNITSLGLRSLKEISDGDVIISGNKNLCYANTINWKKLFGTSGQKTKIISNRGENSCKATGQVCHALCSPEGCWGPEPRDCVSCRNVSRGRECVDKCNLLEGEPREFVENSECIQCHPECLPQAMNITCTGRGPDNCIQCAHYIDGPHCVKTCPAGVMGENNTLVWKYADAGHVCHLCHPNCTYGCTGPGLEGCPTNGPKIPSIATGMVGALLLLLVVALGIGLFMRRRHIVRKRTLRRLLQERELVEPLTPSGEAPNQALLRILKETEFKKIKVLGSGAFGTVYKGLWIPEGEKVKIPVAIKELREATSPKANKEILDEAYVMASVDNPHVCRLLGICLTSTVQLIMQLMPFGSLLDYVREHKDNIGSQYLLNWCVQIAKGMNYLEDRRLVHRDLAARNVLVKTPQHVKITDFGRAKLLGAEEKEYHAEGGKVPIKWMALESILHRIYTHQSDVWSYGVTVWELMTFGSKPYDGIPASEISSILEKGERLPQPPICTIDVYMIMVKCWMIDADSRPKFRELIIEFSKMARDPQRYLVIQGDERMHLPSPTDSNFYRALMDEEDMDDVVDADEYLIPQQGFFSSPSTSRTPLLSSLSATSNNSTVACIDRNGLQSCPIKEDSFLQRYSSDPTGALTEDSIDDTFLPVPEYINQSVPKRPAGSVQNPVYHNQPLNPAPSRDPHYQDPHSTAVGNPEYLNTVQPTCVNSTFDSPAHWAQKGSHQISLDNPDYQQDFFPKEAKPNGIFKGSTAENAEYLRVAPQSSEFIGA
T2 sequence (P00533 25-1210 T790M/C797S/L858R): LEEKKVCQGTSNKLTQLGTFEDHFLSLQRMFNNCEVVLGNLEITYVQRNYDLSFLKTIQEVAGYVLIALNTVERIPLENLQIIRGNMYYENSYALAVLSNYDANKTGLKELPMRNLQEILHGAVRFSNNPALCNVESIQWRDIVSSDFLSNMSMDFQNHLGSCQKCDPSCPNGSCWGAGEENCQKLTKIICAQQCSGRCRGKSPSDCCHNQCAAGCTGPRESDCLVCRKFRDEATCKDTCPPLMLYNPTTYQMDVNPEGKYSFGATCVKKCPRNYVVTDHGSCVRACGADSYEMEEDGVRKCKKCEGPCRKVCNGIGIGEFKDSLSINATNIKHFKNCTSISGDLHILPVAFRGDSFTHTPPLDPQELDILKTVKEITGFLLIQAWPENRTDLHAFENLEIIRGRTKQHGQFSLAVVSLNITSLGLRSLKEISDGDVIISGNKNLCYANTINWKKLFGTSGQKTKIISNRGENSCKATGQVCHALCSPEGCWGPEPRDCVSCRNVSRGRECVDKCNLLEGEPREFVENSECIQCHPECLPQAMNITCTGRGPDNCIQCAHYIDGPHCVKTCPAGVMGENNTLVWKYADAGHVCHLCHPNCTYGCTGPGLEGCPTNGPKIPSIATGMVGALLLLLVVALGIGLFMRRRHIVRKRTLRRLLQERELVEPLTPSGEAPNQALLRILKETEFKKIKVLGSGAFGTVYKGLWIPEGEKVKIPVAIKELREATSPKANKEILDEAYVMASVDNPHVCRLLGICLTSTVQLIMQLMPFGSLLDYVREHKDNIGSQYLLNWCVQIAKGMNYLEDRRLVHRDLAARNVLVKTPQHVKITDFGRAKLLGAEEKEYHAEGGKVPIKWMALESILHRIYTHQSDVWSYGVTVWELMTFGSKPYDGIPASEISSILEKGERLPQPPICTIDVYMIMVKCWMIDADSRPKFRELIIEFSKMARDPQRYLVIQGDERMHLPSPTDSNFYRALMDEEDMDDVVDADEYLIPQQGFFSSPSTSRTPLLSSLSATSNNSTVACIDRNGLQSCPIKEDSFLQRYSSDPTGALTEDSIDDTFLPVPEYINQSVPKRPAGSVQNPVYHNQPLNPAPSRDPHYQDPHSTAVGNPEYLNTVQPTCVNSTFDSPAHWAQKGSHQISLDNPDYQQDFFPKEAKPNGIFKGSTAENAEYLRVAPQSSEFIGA
Sequence of Ba/F3 De119/T790M/C797S EGFR triple mutant cell line (P00533 with tags, fused parts or gaps DEL746-750/T790M/C797S, form open): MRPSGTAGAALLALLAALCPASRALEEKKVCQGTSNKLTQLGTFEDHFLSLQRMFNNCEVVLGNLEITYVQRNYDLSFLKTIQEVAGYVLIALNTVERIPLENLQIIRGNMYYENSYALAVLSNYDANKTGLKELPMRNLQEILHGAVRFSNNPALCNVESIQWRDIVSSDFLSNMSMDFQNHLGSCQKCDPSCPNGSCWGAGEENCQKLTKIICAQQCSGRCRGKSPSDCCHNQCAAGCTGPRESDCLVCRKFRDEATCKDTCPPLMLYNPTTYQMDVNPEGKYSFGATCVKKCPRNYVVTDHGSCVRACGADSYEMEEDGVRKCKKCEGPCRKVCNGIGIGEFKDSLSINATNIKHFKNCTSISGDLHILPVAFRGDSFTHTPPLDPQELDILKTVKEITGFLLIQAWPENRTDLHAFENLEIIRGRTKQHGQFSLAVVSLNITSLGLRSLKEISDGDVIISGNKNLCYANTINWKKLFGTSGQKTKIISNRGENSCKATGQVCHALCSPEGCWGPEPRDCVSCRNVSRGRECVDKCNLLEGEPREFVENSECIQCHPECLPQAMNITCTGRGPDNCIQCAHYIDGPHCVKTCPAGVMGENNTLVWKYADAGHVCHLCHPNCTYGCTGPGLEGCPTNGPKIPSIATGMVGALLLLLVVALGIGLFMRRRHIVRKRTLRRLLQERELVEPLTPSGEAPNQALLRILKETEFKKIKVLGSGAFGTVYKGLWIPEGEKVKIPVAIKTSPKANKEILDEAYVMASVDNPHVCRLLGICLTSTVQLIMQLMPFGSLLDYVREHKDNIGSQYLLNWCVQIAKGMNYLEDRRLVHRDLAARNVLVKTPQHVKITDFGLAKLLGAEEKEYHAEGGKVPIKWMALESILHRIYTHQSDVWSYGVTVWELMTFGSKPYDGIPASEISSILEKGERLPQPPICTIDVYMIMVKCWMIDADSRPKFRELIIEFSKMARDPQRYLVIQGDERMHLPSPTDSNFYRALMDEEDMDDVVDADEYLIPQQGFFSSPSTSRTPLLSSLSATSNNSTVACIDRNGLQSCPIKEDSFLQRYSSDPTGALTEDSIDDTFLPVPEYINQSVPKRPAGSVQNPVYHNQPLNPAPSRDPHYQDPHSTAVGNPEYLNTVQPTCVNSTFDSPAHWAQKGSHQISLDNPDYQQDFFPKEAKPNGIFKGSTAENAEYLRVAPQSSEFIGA
T1 sequence (P00533 25-1210): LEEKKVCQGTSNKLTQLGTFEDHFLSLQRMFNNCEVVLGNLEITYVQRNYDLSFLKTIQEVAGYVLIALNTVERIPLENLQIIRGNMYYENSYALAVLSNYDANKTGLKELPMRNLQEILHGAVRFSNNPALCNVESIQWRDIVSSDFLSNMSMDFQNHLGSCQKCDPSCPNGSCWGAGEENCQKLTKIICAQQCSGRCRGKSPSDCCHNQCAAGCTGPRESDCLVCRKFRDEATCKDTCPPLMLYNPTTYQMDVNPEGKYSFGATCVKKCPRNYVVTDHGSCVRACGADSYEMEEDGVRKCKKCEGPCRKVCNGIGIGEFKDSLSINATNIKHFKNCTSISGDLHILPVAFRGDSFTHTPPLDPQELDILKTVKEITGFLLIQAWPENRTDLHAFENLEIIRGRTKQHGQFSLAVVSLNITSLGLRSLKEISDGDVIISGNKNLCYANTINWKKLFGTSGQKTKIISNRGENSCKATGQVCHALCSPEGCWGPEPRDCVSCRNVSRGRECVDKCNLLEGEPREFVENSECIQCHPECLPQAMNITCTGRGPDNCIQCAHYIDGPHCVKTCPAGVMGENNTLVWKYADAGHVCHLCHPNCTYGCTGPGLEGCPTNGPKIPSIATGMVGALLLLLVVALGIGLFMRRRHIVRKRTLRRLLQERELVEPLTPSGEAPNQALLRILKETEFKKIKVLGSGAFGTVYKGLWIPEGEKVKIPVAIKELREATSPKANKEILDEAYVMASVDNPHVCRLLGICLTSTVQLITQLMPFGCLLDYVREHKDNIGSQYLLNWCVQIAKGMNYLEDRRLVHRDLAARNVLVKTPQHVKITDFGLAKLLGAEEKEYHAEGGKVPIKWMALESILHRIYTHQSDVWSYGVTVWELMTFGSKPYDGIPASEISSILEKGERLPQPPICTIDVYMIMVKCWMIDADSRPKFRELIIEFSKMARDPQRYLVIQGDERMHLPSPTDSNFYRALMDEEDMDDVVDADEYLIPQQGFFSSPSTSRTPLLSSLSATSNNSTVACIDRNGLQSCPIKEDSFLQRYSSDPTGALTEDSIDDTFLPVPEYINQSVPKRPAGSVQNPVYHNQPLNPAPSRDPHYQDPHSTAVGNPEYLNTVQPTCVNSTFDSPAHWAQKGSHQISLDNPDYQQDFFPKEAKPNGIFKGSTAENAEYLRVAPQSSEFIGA

Regarding `COc1cc(N2CCC(N3CCN(C)CC3)CC2)c(-c2cnn(C)c2)cc1Nc1ncc(Br)c(Nc2cc3c(cc2N(C)S(C)(=O)=O)CC3)n1` [compound 158], the IC50 is 2.48 nM in assay [1], 0.81 nM in assay [2] and 166 nM in assay [3]. Besides, the GI50 stood at 3.28 nM in assay [4] and 6.76 nM in assay [5].
For `CCN1CCN(c2cc(OC)c(Nc3ncc(Br)c(Nc4ccc5nccnc5c4P(C)(C)=O)n3)cc2-c2cnn(C)c2)CC1` [compound 89], in that order: 2.11 nM, 0.11 nM, 40.9 nM, 2.33 nM and 4.16 nM.
In the case of `[2H]C([2H])([2H])N(c1cc(OC)c(Nc2ncc(Br)c(Nc3ccc4nccnc4c3P(C)(C)=O)n2)cc1-c1cnn(C)c1)C([2H])([2H])[2H]` [compound 145], the IC50 came to 3.48 nM in assay [1], 0.31 nM in assay [2] and 203 nM in assay [3]. For the same molecule, the GI50 in assay [4] worked out at 1.7 nM; in assay [5], 2.41 nM.
`CN(C)c1c(-c2cnn(C)c2)cc(Nc2ncc(Br)c(Nc3ccc4nccnc4c3P(C)(C)=O)n2)c2c1CCO2` [compound 29]: the IC50 in assay [1] is 3.37 nM; in assay [2], 0.06 nM; in assay [3], 121 nM. Moreover, the values for the GI50 in assay [4] and in assay [5] were 1.29 nM and 4.25 nM, respectively.
Turning to `COc1cc(N2C[C@@H](C)O[C@@H](C)C2)c(-c2cnn(C)c2)cc1Nc1ncc(Br)c(Nc2ccc3nccnc3c2P(C)(C)=O)n1` [compound 111], the values for the IC50 in assay [1], in assay [2] and in assay [3] were 5.65 nM, 1.38 nM and 210 nM, respectively. Moreover, the GI50 in assay [4] was 3.22 nM; in assay [5] it was 4.79 nM.
On to `COc1cc(N2CCC3(CCN(CCF)CC3)CC2)c(-c2cnn(C)c2F)cc1Nc1ncc(Br)c(Nc2ccc3nccnc3c2P(C)(C)=O)n1` [compound 231], for which the IC50 is 1.12 nM in assay [1], 0.37 nM in assay [2] and 40.1 nM in assay [3]. Also, the GI50 worked out at 1.08 nM in assay [4] and 1.12 nM in assay [5].
Turning to `COc1cc(N2CCS(=O)(=O)CC2)c(-c2cnn(C)c2)cc1Nc1ncc(Br)c(Nc2ccc3nccnc3c2P(C)(C)=O)n1` [compound 94], the IC50 in assay [1] was 2.78 nM; in assay [2], 0.15 nM; in assay [3], 168 nM. Besides, the GI50 in assay [4] amounted to 6.99 nM; in assay [5] it was 28.8 nM.
`COc1cc(N2CCOCC2)c(-c2cnn(C)c2)cc1Nc1ncc(Br)c(Nc2ccccc2P(C)(C)=O)n1` [Compound 2, (2-((5-bromo-2-((2-methoxy-5-(1-methyl-1H-pyrazol-4-yl)-4-morpholinylphenyl)amino)pyrimidin-4-yl)amino)phenyl)dimethylphosphine oxide]: the IC50 in assay [1] stood at 18 nM; in assay [2], 0.09 nM; in assay [3], 316 nM. The GI50 in assay [4] turned out to be 4.21 nM; in assay [5], 17.5 nM.
As for `COc1cc(N2CCOCC2)c(-c2cnn(C)c2)cc1Nc1ncc(Br)c(Nc2ccc3nccnc3c2NS(C)(=O)=O)n1` [compound 126], the IC50 was 1.55 nM in assay [1], 0.15 nM in assay [2] and 286 nM in assay [3]. Further, the GI50 in assay [4] stood at 0.93 nM; in assay [5] it was 3.81 nM.
For `COc1cc(N2CCN(S(C)(=O)=O)CC2)c(-c2cnn(C)c2)cc1Nc1ncc(Br)c(Nc2ccc3nccnc3c2P(C)(C)=O)n1` [compound 110], in that order: 1.54 nM, 0.57 nM, 162 nM, 3.7 nM and 10.9 nM.
For the molecule `COc1cc(N2CCC(OCC3CC3)CC2)c(-c2cnn(C)c2)cc1Nc1ncc(Br)c(Nc2ccc3nccnc3c2P(C)(C)=O)n1` [compound 156], the IC50 was found to be 33.5 nM in assay [1], 3.81 nM in assay [2] and 372 nM in assay [3]. In addition, the GI50 came out at 1.05 nM in assay [4] and 7.29 nM in assay [5].
For `Cc1nc(N2CCOCC2)c(-c2cnn(C)c2)cc1Nc1ncc(Br)c(Nc2ccc3nccnc3c2P(C)(C)=O)n1` [compound 38], in that order: 17.8 nM, 0.23 nM, 295 nM, 10.2 nM and 32.6 nM.
Turning to `COc1cc(N2CCC3(CC2)COCCN3C)c(-c2cnn(C)c2)cc1Nc1ncc(Br)c(Nc2cc3c(cc2N(C)S(C)(=O)=O)CC3)n1` [compound 208], the IC50 in assay [1] came to 5.79 nM; in assay [2], 0.57 nM; in assay [3], 348 nM. Also, the figures for the GI50 in assay [4] and in assay [5] were 9.45 nM and 14.6 nM, respectively.
With `Cn1cc(-c2cc3c(c(Nc4ncc(Br)c(Nc5ccc6nccnc6c5P(C)(C)=O)n4)c2)OCC3)cn1` [compound 39], the figures for the IC50 in assay [1], in assay [2] and in assay [3] were 7.45 nM, 0.06 nM and 41.3 nM, respectively. Further, the GI50 in assay [4] was determined as 4.07 nM; in assay [5], 9.69 nM.
In the case of `COc1cc(N2CCOCC2)c(-c2cnn(C)c2)cc1Nc1ncc(Br)c(Nc2ccccc2NS(=O)(=O)C2CC2)n1` [compound 125], the IC50 in assay [1] was determined as 23.8 nM; in assay [2] it was 0.53 nM; in assay [3] it was 490 nM. For the same molecule, the results for the GI50 in assay [4] and in assay [5] were 5.87 nM and 14.4 nM, respectively.
Take `COc1cc(N2CCC(OCC3CC3)CC2)c(-c2cnn(C)c2)cc1Nc1ncc(Br)c(Nc2ccc3ncccc3c2P(C)(C)=O)n1` [compound 225]: the values for the IC50 in assay [1], in assay [2] and in assay [3] were 10.8 nM, 1.96 nM and 370 nM, respectively. The GI50 is 3.54 nM in assay [4] and 11.3 nM in assay [5].
For `COc1cc(N2CCOCC2)c(-c2ccsc2)cc1Nc1ncc(Br)c(Nc2ccc3nccnc3c2P(C)(C)=O)n1` [compound 86], in that order: 345 nM, 15.6 nM, 3060 nM, 87.8 nM and 136 nM.
With `COCCN(C)c1cc(OC)c(Nc2ncc(Br)c(Nc3ccc4nccnc4c3P(C)(C)=O)n2)cc1-c1cnn(C)c1` [compound 28], the IC50 in assay [1] amounted to 15.4 nM; in assay [2] it was 0.13 nM; in assay [3], 362 nM. Further, the results for the GI50 in assay [4] and in assay [5] were 4.73 nM and 13.7 nM, respectively.
For `COc1nc(N2CCOCC2)c(-c2cn(C)nc2C)cc1Nc1ncc(Br)c(Nc2ccc3nccnc3c2P(C)(C)=O)n1` [compound 37], in that order: 268 nM, 3.18 nM, 1140 nM, 32.6 nM and 65.6 nM.
Regarding `COc1cc(N2CCC3(CCN(CC(F)(F)F)CC3)CC2)c(-c2cnn(C)c2)cc1Nc1ncc(Br)c(Nc2ccc3nccnc3c2P(C)(C)=O)n1` [compound 245], the IC50 in assay [1] amounted to 105 nM; in assay [2] it was 2.8 nM; in assay [3] it was 747 nM. Besides, the GI50 in assay [4] was determined as 5.35 nM; in assay [5] it was 11.6 nM.
For `COc1cc(N2CCC(O)CC2)c(-c2cnn(C)c2)cc1Nc1ncc(Br)c(Nc2ccc3nccnc3c2P(C)(C)=O)n1` [compound 121, (6-((5-bromo-2-((4-(4-hydroxypiperidin-1-yl)-2-methoxy-5-(1-methyl-1H-pyrazol-4-yl)phenyl)amino]pyrimidin-4-yl)amino)quinoxalin-5-yl)dimethylphosphine oxide], the IC50 in assay [1] was 0.67 nM; in assay [2], 0.25 nM; in assay [3], 150 nM. The GI50 in assay [4] worked out at 1.61 nM; in assay [5] it was 6.16 nM.
On to `CN1CCC2(CC1)CCN(c1nc(OCC(F)(F)F)c(Nc3ncc(Br)c(Nc4ccc5nccnc5c4P(C)(C)=O)n3)cc1-c1cnn(C)c1)CC2` [compound 87], for which the results for the IC50 in assay [1], in assay [2] and in assay [3] were 3.47 nM, 0.35 nM and 178 nM, respectively. The figures for the GI50 in assay [4] and in assay [5] were 5.89 nM and 14.2 nM, respectively.
In the case of `COc1cc(N2CCC(N3CCO[C@@H](C)C3)CC2)c(-c2cnn(C)c2)cc1Nc1ncc(Br)c(Nc2ccc3nccnc3c2P(C)(C)=O)n1` [compound 165], the IC50 in assay [1] came out at 1.36 nM; in assay [2], 0.69 nM; in assay [3], 70.2 nM. The GI50 came to 0.8 nM in assay [4] and 2.62 nM in assay [5].
For `COc1cc(N2CC[C@@H]3CCN(CC4CC4)[C@@H]3C2)c(-c2cnn(C)c2)cc1Nc1ncc(Br)c(Nc2ccc3nccnc3c2P(C)(C)=O)n1` (single isomer, unassigned) [234b], in that order: 5.44 nM, 0.37 nM, 38.4 nM, 2.52 nM and 5.65 nM.
Consider `COc1cc(N2CCN(S(=O)(=O)C3CC3)CC2)c(-c2cnn(C)c2)cc1Nc1ncc(Br)c(Nc2ccc3nccnc3c2P(C)(C)=O)n1` [compound 178], for which the IC50 in assay [1] came to 7.68 nM; in assay [2], 1.29 nM; in assay [3] it was 168 nM. The GI50 in assay [4] is 2.86 nM; in assay [5], 13 nM.

Source of the values: patent US20230219986A1, “NOVEL AMINOPYRIMIDINE EGFR INHIBITOR” (QILU PHARMACEUTICAL CO., LTD., priority 2020, published 2023).
